# pIC50: −log10 of the molar value.
# Assays:
# ErbB2 or EGFR = biological target: T1, ErbB2 or EGFR; assay: ErbB enzyme substrate phosphorylation assay (HTRF), Method B (enzyme pre-incubated with compound 1 hour); assay type: biochemical; settings: Table 1, enzyme Method B: enzyme mix incubated with compound 1 hour at 20° C., reaction started with substrate mix; class over ErbB2 or EGFR
# T1 construct: enzymes purified from a baculovirus expression system
# Method in brief: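 Baculovirus-expressed kinase (0.8 nM EGFR or 10 nM ErbB2 in enzyme mix) phosphorylated biotinylated Peptide C (0.8 µM in substrate mix) with 20 µM ATP in substrate mix, MOPS pH 7.5, MnCl2, 90 min at 20 °C. Method A started with enzyme; Method B pre-incubated enzyme with compound 1 h at 20 °C. HTRF read-out; IC50 from 12-point curve (0.00027–47.6 µM), reported as pIC50.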
# Colo205 tumor cell lines [1] = assay: Methylene blue growth inhibition assay (cellular Method A); assay type: cell-based; settings: Homo sapiens, COLO 205, 72 h, Table 3, Method A methylene blue, 3 days
# Description: (§1) Human breast (BT474) and head and neck (HN5) were cultured in low glucose DMEM (Life Technologies 12320-032) containing 10% fetal bovine serum (FBS). Human colon tumor cells (Colo205) were cultured in DMEM (Invitrogen, 10564) containing 10% FBS. The SV40 transformed human mammary epithelial cell line to HB4a was transfected with either human H-ras cDNA (HB4a r4.2) or the human c-ErbB2 cDNA (HB4a c5.2). The HB4a clones were cultured in RPMI containing 10% FBS, insulin ([…]), hydrocortisone ([…]), supplemented with the selection agent hygromycin B ([…]). All lines were grown in a humidified incubator at 37° C. in 95% air, 5% CO2. Cells were harvested using trypsin/EDTA, counted using a haemocytometer, and plated in 100 microliters of the appropriate media, at the following densities, in a 96-well tissue culture plate (Falcon 3075): BT474 10,000 cells/well, HN5 3,000 cells/well. The next day, compounds were diluted in DMEM containing […] gentamicin, at twice the final required concentration, from 10 mM stock solutions in DMSO. 100 microliters/well of these dilutions were added to the 100 microliters of media currently on the cell plates. Medium containing 0.6% DMSO was added to control wells. Compounds diluted in DMEM were added to all cell lines. The final concentration of DMSO in all wells was 0.3%. Cells were returned to the incubator (37° C., […]) for 3 days. Medium was then removed by aspiration. Cell biomass was estimated by staining cells with 90 microliters per well methylene blue (Sigma M9140, 0.5% in 1:1 ethanol:water), and incubation at rt for at least 30 minutes. Stain was removed, and the plates rinsed by immersion in deionized water and air-dried. To release stain from the cells 100 microliters of solubilization solution was added (1% N-lauroyl sarcosine, Sodium salt, Sigma L5125, in PBS), and plates were shaken gently for about 30 minutes. Optical density at 620 nm was measured on a microplate reader. Percent inhibition of cell growth was calculated relative to vehicle treated control wells. Concentration of compound that inhibits 50% of control cell growth (IC50) was interpolated using nonlinear regression (Levenberg-Marquardt) and the equation, y=Vmax*(1−(x/(K+x)))+Y2, where “K” was equal to the IC50. Method B: Celltiter Glo® Growth Inhibition Assays
# [2] = system: BT474 and HN5 tumor cell lines; assay: as above; assay type: cell-based; settings: Homo sapiens, BT-474 and HN5, 72 h; Table 2, Method A methylene blue, 3 days; class over BT474 and HN5
# Description: as §1
# Colo205 tumor cell lines [3] = assay: Celltiter Glo growth inhibition assay (cellular Method B); assay type: cell-based; settings: Homo sapiens, COLO 205, 72 h, Table 3, Method B Celltiter Glo, 3 days
# Method in brief: (§2)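 BT474, HN5 and Colo205 cells were each grown in their own 10% FBS medium, then exposed to compound for 3 days at 37 °C with 0.3% final DMSO. Growth was read by CellTiter-Glo luminescence as percent inhibition versus vehicle, and IC50 was interpolated by nonlinear regression.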
# [4] = system: BT474 and HN5 tumor cell lines; assay: as above; assay type: cell-based; settings: Homo sapiens, BT-474, 72 h; Table 2, Method B Celltiter Glo, 3 days; class over BT474 and HN5
# Method in brief: as §2
pIC50 (Colo205 tumor cell lines [1]),pIC50 [2],pIC50 (Colo205 tumor cell lines [3]),pIC50 [4],SMILES,Activity (Method) (ErbB2 or EGFR)
< 6.00,< 6.00,–,–,CN(C)CCOc1cc(Nc2nccc(-c3c(-c4cccc(NC(=O)Cc5cccs5)c4)nn4ccccc34)n2)ccc1Cl [Example 45],++ (B) (at least one pIC50 measurement greater than 6 against either ErbB2 or EGFR but no measurement greater than pIC50 of 7)
6.00 to 7.00,> 7.00,–,–,"NC1Cc2ccc(Nc3nccc(-c4c(-c5cccc(NC(=O)Cc6cccs6)c5)nn5ccccc45)n3)cc2C1 (stereo not drawn) [Example 54, N-[3-(3-{2-[(2-Amino-2,3-dihydro-1H-inden-5-yl)amino]-4-pyrimidinyl}pyrazolo[1,5-a]pyridin-2-yl)phenyl]-2-(2-thienyl)acetamide]",+++ (B) (at least one pIC50 measurement of greater than 7 against either ErbB2 or EGFR)
6.00 to 7.00,6.00 to 7.00,–,–,"O=C(Cc1cccs1)Nc1cccc(-c2nn3ccccc3c2-c2ccnc(Nc3cccc(OCCCN4CCOCC4)c3)n2)c1 [Example 11, N-[3-(3-{2-[3-{[3-(4-Morpholinyl)propyl]oxy}phenylamino]-4-pyrimidinyl}pyrazolo[1,5-a]pyridin-2-yl)phenyl]-2-(2-thienyl)acetamide]",+++ (B) (at least one pIC50 measurement of greater than 7 against either ErbB2 or EGFR)
6.00 to 7.00,< 6.00,–,–,"CN(C)Cc1cccc(Nc2nccc(-c3c(-c4cccc(NC(=O)Cc5c(F)cccc5F)c4)nn4ccccc34)n2)c1 [Example 25, 2-(2,6-Difluorophenyl)-N-(3-{3-[2-({3-[(dimethylamino)methyl]-phenyl}amino)-4-pyrimidinyl]pyrazolo[1,5-a]pyridin-2-yl}phenyl)acetamide]",++ (B) (at least one pIC50 measurement greater than 6 against either ErbB2 or EGFR but no measurement greater than pIC50 of 7)
6.00 to 7.00,6.00 to 7.00,–,–,"CCN(CC)CCOc1cccc(Nc2nccc(-c3c(-c4cccc(NC(=O)Cc5cccs5)c4)nn4ccccc34)n2)c1 [Example 14, N-[3-(3-{2-[(3-{[2-(Diethylamino)ethyl]oxy}phenyl)amino]-4-pyrimidinyl}pyrazolo[1,5-a]pyridin-2-yl)phenyl]-2-(2-thienyl)acetamide]",+++ (B) (at least one pIC50 measurement of greater than 7 against either ErbB2 or EGFR)
6.00 to 7.00,6.00 to 7.00,–,–,"CN(C)CCOc1cccc(Nc2nccc(-c3c(-c4cccc(NC(=O)Cc5ccsc5)c4)nn4ccccc34)n2)c1 [Example 39, N-[3-(3-{2-[(3-{[2-(dimethylamino)ethyl]oxy}phenyl)amino]-4-pyrimidinyl}pyrazolo[1,5-a]pyridin-2-yl)phenyl]-2-(3-thienyl)acetamide]",+++ (B) (at least one pIC50 measurement of greater than 7 against either ErbB2 or EGFR)
6.00 to 7.00,6.00 to 7.00,–,–,"O=C(Cc1cccs1)Nc1cccc(-c2nn3ccccc3c2-c2ccnc(Nc3ccc4c(c3)CNCC4)n2)c1 [Example 16, N-(3-{3-[2-(1,2,3,4-Tetrahydro-7-isoquinolinylamino)-4-pyrimidinyl]pyrazolo[1,5-a]pyridin-2-yl}phenyl)-2-(2-thienyl)acetamide]",+++ (B) (at least one pIC50 measurement of greater than 7 against either ErbB2 or EGFR)
< 6.00,< 6.00,–,–,"CN(C)Cc1cccc(Nc2nccc(-c3c(-c4cccc(NC(=O)Cc5ccccn5)c4)nn4ccccc34)n2)c1 [Example 27, N-(3-{3-[2-({3-[(Dimethylamino)methyl]phenyl}amino)-4-pyrimidinyl]pyrazolo[1,5-a]pyridin-2-yl}phenyl)-2-(2-pyridinyl)acetamide]",++ (B) (at least one pIC50 measurement greater than 6 against either ErbB2 or EGFR but no measurement greater than pIC50 of 7)
< 6.00,< 6.00,–,–,"Cc1sc(-c2ccccc2)nc1CC(=O)Nc1cccc(-c2nn3ccccc3c2-c2ccnc(Nc3cccc(CN(C)C)c3)n2)c1 [Example 29, N-(3-{3-[2-({3-[(Dimethylamino)methyl]phenyl}amino)-4-pyrimidinyl]pyrazolo[1,5-a]pyridin-2-yl}phenyl)-2-(5-methyl-2-phenyl-1,3-thiazol-4-yl)acetamide]",+ (B) (no pIC50 measurement greater than 6 against either ErbB2 or EGFR)
< 6.00,< 6.00,–,–,"CN(C)Cc1cccc(Nc2nccc(-c3c(-c4cccc(NC(=O)Cc5cccnc5)c4)nn4ccccc34)n2)c1 [Example 26, N-(3-{3-[2-({3-[(Dimethylamino)methyl]phenyl}amino)-4-pyrimidinyl]pyrazolo[1,5-a]pyridin-2-yl}phenyl)-2-(3-pyridinyl)acetamide]",++ (B) (at least one pIC50 measurement greater than 6 against either ErbB2 or EGFR but no measurement greater than pIC50 of 7)
–,–,6.00 to 7.00,6.00 to 7.00,"CN(C)CCOc1cccc(Nc2nccc(-c3c(-c4ccc(F)c(NC(=O)Cc5cccs5)c4)nn4ccccc34)n2)c1 [Example 38, N-[5-(3-{2-[(3-{[2-(dimethylamino)ethyl]oxy}phenyl)amino]-4-pyrimidinyl}pyrazolo[1,5-a]pyridin-2-yl)-2-fluorophenyl]-2-(2-thienyl)acetamide]",++ (B) (at least one pIC50 measurement greater than 6 against either ErbB2 or EGFR but no measurement greater than pIC50 of 7)
–,–,< 6.00,6.00 to 7.00,"CN1CCc2ccc(Nc3nccc(-c4c(-c5cccc(NC(=O)Cc6cccs6)c5)nn5cc(F)ccc45)n3)cc2C1 [Example 35, N-[3-(6-fluoro-3-{2-[(2-methyl-1,2,3,4-tetrahydro-7-isoquinolinyl)amino]-4-pyrimidinyl}pyrazolo[1,5-a]pyridin-2-yl)phenyl]-2-(2-thienyl)acetamide]",++ (B) (at least one pIC50 measurement greater than 6 against either ErbB2 or EGFR but no measurement greater than pIC50 of 7)
–,–,> 7.00,6.00 to 7.00,"COc1ccc(Nc2nccc(-c3c(-c4cccc(NC(=O)Cc5cccs5)c4)nn4ccccc34)n2)cc1N1CCN(CCS(C)(=O)=O)CC1 [Example 47, N-[3-(3-{2-[(4-(Methyloxy)-3-{4-[2-(methylsulfonyl)ethyl]-1-piperazinyl}phenyl)amino]-4-pyrimidinyl}pyrazolo[1,5-a]pyridin-2-yl)phenyl]-2-(2-thienyl)acetamide]",+++ (B) (at least one pIC50 measurement of greater than 7 against either ErbB2 or EGFR)
–,–,< 6.00,6.00 to 7.00,"NCc1cccc(Nc2nccc(-c3c(-c4cccc(NC(=O)Cc5cccs5)c4)nn4ccccc34)n2)c1 [Example 42, N-{3-[3-(2-{[3-(Aminomethyl)phenyl]amino}-4-pyrimidinyl)pyrazolo[1,5-a]pyridin-2-yl]phenyl}-2-(2-thienyl)acetamide]",+++ (B) (at least one pIC50 measurement of greater than 7 against either ErbB2 or EGFR)
–,–,6.00 to 7.00,6.00 to 7.00,"COc1ccc(-c2nn3ccccc3c2-c2ccnc(Nc3ccc4c(c3)CC(N(C)C)C4)n2)cc1NC(=O)Cc1cccs1 (stereo not drawn) [Example 48, N-{5-[3-(2-{[2-(Dimethylamino)-2,3-dihydro-1H-inden-5-yl]amino}pyrimidin-4-yl)pyrazolo[1,5-a]pyridin-2-yl]-2-methoxyphenyl}-2-(2-thienyl)acetamide]",+ (B) (no pIC50 measurement greater than 6 against either ErbB2 or EGFR)

# — patent publication US7807673B2, “2-pyrimidinyl pyrazolopyridine ErbB kinase inhibitors” (GlaxoSmithKline LLC, priority 2005, dated 2010)
